This passage reports remaining binding results from publication PMC4770715, “LIM kinase inhibitors disrupt mitotic microtubule organization and impair tumor cell proliferation” (Oncotarget, 2015).

Molecules are shown by their SMILES.

Assay in all cases: biochemical
What all share (parameters): KINOMEscan active-site competition binding, percent of control (100 = no competition)
What all share (settings): competition binding, percent control

One experiment has as its target MARK1 (Homo sapiens, UniProt Q9P0L2). An excerpt:
(§1) Given the potential for the use of LIMK inhibitors as cancer chemotherapeutics, a high-throughput drug discovery and medicinal chemistry program was undertaken. Details of the screening methodology and description of initial hit matter were described in [38]. […] Details of their chemical synthesis are described in Charles et al.. […] These and additional physiochemical parameters are in Supplemental Table 5. […] Kinases inhibited >25% to 50% have yellow circles, 51% to 75% have orange circles, and >76% have red circles. In each case, the size of the circle is proportional to percentage inhibition. LIMK1 and LIMK2 positions are indicated in blue. Illustration reproduced courtesy of Cell Signaling Technology, Inc. (www.cellsignal.com). B. CRT0105950 structure and kinome selectivity mapping as described above. C.

Another experiment deals with T1, ERK2 (Homo sapiens, UniProt P28482).
T1 construct: gene MAPK1
From the text: as §1

The next experiment concerns the target ERBB2 (Homo sapiens, UniProt P04626).
From the text: as §1

The next experiment concerns the target MAP4K4 (Homo sapiens, UniProt O95819).
From the text: as §1

A further experiment addresses PIK3CA(E542K) (Homo sapiens, UniProt P42336, E542K).
From the text: as §1

Another experiment deals with CAMK2B (Homo sapiens, UniProt Q13554).
From the text: as §1

The target of a further experiment is TAOK1 (Homo sapiens, UniProt Q7L7X3).
Chain of TAOK1 (Q7L7X3 whole entry): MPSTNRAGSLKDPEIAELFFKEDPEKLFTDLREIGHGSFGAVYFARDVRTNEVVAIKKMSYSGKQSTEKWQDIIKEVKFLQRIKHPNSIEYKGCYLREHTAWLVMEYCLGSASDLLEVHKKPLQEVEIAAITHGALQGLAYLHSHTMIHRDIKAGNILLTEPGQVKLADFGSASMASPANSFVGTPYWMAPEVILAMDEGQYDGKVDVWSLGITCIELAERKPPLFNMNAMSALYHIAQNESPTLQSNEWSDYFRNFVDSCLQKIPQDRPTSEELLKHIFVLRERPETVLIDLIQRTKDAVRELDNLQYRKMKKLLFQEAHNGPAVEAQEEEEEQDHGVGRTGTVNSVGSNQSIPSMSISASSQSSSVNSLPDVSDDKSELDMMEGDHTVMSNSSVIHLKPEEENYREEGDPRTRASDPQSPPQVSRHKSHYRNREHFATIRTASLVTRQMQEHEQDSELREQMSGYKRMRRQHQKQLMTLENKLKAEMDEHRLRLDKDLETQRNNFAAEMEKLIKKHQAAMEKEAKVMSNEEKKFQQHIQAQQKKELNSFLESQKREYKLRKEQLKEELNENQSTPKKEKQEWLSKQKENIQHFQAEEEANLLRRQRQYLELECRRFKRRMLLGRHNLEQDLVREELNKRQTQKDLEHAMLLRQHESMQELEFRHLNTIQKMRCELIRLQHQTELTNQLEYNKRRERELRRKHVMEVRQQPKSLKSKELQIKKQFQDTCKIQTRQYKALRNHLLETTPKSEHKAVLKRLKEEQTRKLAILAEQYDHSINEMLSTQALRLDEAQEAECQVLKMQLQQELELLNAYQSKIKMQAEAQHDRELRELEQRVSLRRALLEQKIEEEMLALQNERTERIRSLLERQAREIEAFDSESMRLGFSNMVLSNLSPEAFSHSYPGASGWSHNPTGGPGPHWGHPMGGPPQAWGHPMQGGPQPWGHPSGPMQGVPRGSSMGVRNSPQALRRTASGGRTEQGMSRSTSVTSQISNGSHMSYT
From the text: as §1

Another experiment has as its target EIF2AK1 (Homo sapiens, UniProt Q9BQI3).
From the text: as §1

Another experiment concerns the target AXL (Homo sapiens, UniProt P30530).
From the text: as §1

Another experiment addresses MYLK2 (Homo sapiens, UniProt Q9H1R3).
From the text: as §1

For another experiment, the target named is T2, DCAMKL2 (Homo sapiens, UniProt Q8N568).
T2 construct: gene DCLK2
From the text: as §1

The next experiment deals with FLT3(R834Q) (Homo sapiens, UniProt P36888, R834Q).
From the text: as §1

A further experiment concerns the target T3, PCTK1 (Homo sapiens, UniProt Q00536).
T3 construct: gene CDK16
From the text: as §1

The target in another experiment is RET(V804M) (Homo sapiens, UniProt P07949, V804M).
From the text: as §1

In another experiment the target is DDR1 (Homo sapiens, UniProt Q08345).
From the text: as §1

The target of a further experiment is MUSK (Homo sapiens, UniProt O15146).
From the text: as §1

For another experiment, the target named is PIK3CA(C420R) (Homo sapiens, UniProt P42336, C420R).
From the text: as §1

A further experiment has as its target SRPK1 (Homo sapiens, UniProt Q96SB4).
From the text: as §1

In another experiment the target is ULK3 (Homo sapiens, UniProt Q6PHR2).
Chain of ULK3 (Q6PHR2 whole entry): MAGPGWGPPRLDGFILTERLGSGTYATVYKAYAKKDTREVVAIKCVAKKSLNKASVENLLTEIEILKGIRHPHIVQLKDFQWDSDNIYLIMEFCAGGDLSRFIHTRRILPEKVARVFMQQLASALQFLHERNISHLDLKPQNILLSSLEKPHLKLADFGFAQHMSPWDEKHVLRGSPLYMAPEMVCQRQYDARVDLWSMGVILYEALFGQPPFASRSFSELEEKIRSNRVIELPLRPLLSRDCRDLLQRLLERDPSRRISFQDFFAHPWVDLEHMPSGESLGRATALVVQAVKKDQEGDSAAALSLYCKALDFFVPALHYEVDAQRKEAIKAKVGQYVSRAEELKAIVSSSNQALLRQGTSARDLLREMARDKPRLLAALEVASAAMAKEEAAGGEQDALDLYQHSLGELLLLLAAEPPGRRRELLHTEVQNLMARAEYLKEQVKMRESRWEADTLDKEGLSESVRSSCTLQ
From the text: as §1

Another experiment deals with FLT3 (Homo sapiens, UniProt P36888).
From the text: as §1

The next experiment deals with PIM2 (Homo sapiens, UniProt Q9P1W9).
Chain of PIM2 (Q9P1W9 whole entry): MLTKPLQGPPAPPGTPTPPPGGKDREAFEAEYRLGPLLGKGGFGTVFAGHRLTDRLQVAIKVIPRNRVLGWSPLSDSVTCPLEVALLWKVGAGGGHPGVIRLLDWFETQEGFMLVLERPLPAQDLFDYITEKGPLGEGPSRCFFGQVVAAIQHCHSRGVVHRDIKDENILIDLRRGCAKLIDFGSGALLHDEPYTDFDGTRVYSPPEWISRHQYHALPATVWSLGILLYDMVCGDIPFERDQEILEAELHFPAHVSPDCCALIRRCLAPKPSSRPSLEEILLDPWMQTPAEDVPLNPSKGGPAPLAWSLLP
From the text: as §1

For a further experiment, the target named is T4, PFCDPK1(P.falciparum) (Plasmodium falciparum, UniProt P62344).
T4 construct: gene CDPK1
From the text: as §1

The next experiment has as its target T5, ASK2 (Homo sapiens, UniProt O95382).
T5 construct: gene MAP3K6
From the text: as §1

Chain of EIF2AK1 (Q9BQI3 whole entry): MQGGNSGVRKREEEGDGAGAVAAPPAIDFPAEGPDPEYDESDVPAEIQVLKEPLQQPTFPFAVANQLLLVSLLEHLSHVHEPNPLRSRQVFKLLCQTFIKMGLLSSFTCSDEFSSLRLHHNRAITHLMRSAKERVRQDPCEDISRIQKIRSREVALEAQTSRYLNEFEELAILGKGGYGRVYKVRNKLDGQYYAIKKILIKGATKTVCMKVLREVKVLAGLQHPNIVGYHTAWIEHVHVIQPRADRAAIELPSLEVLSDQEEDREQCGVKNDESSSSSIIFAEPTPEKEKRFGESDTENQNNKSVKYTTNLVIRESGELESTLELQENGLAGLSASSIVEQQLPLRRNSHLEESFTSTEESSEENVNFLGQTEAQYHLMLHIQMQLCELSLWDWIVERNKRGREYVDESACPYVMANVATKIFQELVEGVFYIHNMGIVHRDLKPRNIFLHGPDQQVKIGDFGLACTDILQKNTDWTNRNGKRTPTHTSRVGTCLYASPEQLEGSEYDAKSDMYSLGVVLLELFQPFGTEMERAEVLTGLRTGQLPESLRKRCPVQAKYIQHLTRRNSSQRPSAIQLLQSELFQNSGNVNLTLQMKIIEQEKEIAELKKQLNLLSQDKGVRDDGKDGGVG
Chain of ERBB2 (P04626 whole entry): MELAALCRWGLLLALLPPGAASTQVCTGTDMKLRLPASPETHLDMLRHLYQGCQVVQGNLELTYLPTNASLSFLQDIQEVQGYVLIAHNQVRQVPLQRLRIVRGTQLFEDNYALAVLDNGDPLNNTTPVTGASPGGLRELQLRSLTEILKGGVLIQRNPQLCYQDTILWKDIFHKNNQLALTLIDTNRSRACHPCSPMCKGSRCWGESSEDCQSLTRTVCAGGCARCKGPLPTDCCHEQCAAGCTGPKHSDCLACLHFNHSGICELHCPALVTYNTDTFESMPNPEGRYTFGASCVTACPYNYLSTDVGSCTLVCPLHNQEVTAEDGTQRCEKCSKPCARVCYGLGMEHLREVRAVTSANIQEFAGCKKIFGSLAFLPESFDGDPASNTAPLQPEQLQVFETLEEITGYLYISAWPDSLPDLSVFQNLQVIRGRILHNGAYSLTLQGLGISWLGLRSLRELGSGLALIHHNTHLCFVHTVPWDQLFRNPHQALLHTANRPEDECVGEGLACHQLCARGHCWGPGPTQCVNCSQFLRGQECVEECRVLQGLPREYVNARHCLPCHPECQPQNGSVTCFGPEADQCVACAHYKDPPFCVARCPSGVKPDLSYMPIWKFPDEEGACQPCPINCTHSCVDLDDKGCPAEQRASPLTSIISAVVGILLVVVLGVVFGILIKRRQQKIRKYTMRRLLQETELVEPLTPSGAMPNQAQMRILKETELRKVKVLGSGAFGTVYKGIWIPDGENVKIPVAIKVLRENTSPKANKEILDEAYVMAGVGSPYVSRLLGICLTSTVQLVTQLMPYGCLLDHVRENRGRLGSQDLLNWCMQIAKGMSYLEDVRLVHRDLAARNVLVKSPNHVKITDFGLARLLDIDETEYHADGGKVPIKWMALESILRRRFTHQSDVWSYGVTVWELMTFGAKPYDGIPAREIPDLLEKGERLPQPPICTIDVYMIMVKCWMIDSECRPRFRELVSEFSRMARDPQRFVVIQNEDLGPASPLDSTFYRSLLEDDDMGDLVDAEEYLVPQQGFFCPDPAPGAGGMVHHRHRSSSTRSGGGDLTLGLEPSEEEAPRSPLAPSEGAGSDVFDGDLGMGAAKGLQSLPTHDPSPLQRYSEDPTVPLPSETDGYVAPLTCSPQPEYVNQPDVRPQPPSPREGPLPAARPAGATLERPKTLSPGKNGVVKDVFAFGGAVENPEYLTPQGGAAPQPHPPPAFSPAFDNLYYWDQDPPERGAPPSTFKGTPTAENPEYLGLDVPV
Chain of MARK1 (Q9P0L2 whole entry): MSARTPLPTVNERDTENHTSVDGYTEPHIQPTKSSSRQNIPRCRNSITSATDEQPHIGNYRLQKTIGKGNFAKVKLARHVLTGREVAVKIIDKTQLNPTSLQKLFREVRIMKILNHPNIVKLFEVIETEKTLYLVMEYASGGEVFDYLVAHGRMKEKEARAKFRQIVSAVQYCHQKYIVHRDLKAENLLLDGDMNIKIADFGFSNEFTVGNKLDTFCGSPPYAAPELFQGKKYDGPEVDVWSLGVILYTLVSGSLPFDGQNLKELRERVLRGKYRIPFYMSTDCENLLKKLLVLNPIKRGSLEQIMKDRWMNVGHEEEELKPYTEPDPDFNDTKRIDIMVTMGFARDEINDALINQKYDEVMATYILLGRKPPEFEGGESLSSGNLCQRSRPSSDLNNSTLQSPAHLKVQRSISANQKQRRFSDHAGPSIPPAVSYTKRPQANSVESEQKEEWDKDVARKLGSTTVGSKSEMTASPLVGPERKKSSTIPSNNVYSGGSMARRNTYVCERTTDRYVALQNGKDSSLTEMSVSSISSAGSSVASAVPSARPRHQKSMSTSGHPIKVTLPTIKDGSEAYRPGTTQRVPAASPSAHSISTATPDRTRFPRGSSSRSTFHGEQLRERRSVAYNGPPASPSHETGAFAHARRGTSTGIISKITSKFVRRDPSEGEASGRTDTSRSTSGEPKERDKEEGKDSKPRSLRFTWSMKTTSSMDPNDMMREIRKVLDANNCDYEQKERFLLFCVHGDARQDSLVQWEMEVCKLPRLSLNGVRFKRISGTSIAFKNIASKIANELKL
Chain of MYLK2 (Q9H1R3 whole entry): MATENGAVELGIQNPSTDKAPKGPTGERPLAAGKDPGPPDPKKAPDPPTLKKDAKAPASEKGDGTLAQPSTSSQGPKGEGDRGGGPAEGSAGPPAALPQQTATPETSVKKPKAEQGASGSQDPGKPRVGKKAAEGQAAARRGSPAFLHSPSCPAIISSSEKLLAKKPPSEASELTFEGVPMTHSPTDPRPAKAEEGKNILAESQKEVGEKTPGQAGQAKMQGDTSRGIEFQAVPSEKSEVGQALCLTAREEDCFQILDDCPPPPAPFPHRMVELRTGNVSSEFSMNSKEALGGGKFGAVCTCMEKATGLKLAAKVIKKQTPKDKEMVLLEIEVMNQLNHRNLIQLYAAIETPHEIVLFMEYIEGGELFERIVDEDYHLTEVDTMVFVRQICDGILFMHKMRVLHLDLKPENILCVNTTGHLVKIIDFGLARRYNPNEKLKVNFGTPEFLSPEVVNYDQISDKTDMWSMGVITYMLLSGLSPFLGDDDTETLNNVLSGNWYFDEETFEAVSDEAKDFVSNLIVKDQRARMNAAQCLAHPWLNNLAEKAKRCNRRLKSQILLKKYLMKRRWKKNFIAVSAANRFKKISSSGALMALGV

`COc1ccc(-c2cnccc2-c2cnc(NC(=O)C(C)C)s2)c(C(F)(F)F)c1` [CRT0105446, N-{5-[3-(4-Methoxy-2-trifluoromethyl-phenyl)-pyridin-4-yl]-hiazol-2-yl}-isobutyramide]: the remaining binding at 10 µM stood at 87% on MARK1; 100% at ERK2; 94% on ERBB2; 68% on MAP4K4; 100% on PIK3CA(E542K); 92% on CAMK2B. Also, the remaining binding at 10 µM on TAOK1 was found to be 93%; on EIF2AK1, 100%; on AXL, 87%; at MYLK2, 49%; on DCAMKL2, 39%; at FLT3(R834Q), 88%. Besides, the remaining binding at 10 µM on PCTK1 is 11%; on RET(V804M), 68%; on DDR1 it was 83%; at MUSK it was 96%; on PIK3CA(C420R), 100%; at SRPK1, 100%. In addition, the remaining binding at 10 µM at ULK3 came to 100%; on FLT3, 41%; on PIM2, 100%; at PFCDPK1(P.falciparum), 30%; at ASK2 it was 100%.
As to `Cc1ccc(-c2cnccc2-c2cnc(Nc3ccc(O)cc3)s2)c(Cl)c1` [CRT0105950, 4-{5-[3-(2-Chloro-4-methyl-phenyl)-pyridin-4-yl]-thiazol-2-ylamino}-phenol], the remaining binding at 10 µM on MARK1 worked out at 5.8%; on ERK2, 100%; at ERBB2, 80%; at MAP4K4 it was 11%; on PIK3CA(E542K), 100%; at CAMK2B, 42%. For the same molecule, the remaining binding at 10 µM amounted to 17% on TAOK1; 97% at EIF2AK1; 43% on AXL; 49% at MYLK2; 77% at DCAMKL2; 18% at FLT3(R834Q). Moreover, the remaining binding at 10 µM on PCTK1 is 63%; at RET(V804M) it was 3.4%; at DDR1 it was 0.1%; on MUSK, 18%; at PIK3CA(C420R), 88%; at SRPK1 it was 74%. The remaining binding at 10 µM on ULK3 stood at 68%; on FLT3, 0.55%; on PIM2 it was 100%; at PFCDPK1(P.falciparum), 17%; on ASK2, 100%.
